From patent publication US20240336610A1, “3CL PROTEASE SMALL-MOLECULE INHIBITOR FOR TREATING OR PREVENTING CORONAVIRUS INFECTION, AND USE THEREOF” (THE GLOBAL HEALTH DRUG DISCOVERY INSTITUTE, priority 2021, published 2024)

Each molecule was assayed against SARS-CoV-2 main protease (3CLpro) (Severe acute respiratory syndrome coronavirus 2 (2019-nCoV) (SARS-CoV-2), UniProt P0DTD1) (assay: Enzyme activity test). Conditions: 200 nM recombinant SARS-CoV-2 main protease, 15 μM fluorescent substrate, pH 7.3.
Assay type: biochemical

| SMILES | IC50 |
| --- | --- |
| CC(=O)N[C@H](C(=O)N1C[C@H]2[C@@H]([C@H]1C(=O)NC(C#N)c1cncc(-c3cnn(C)c3)c1)C2(C)C)C(C)(C)C (stereo partly drawn) [GDI-030, (1R,2S,5S)-3-((S)-2-acetamido-3,3-dimethylbutyryl)-N-(cyano(5-(1-methyl-1H-pyrazol-4-yl)pyridin-3-yl)methyl)-6,6-dimethyl-3-azabicyclo[3.1.0]hexane-2-carboxamide] | 18 nM |
| CC1(C)[C@@H]2[C@@H](C(=O)NC(C#N)c3cncc(Br)c3)N(C(=O)OCc3ccccc3Cl)C[C@@H]21 (stereo partly drawn) [GDI-013, 2-chlorobenzyl((1R,2S,5S)-2-((5-bromopyridin-3-yl)(cyano)methyl)carbamoyl)-6,6-dimethyl-3-azabicyclo[3.1.0]hexane-3-carb oxylate] | 340 nM |
| CN(C)c1ccc(S(=O)(=O)N[C@H](C(=O)N2C[C@H]3[C@@H]([C@H]2C(=O)NC(C#N)c2cncc(Br)c2)C3(C)C)C(C)(C)C)cc1 (stereo partly drawn) [GDI-026, (1R,2S,5S)-N-((5-bromopyridin-3-yl) (cyano)methyl)-3-((S)-2-((4-(dimethylamino)phenyl)sulfonamido)-3,3-dimethylbutanoyl)-6,6-d imethyl-3-azabicyclo[3.1.0]hexane-2-carboxamide] | 17 nM |
| CC(=O)N[C@H](C(=O)N1C[C@H]2[C@@H]([C@H]1C(=O)NC(C#N)c1cncc(-c3nc(C)no3)c1)C2(C)C)C(C)(C)C (stereo partly drawn) [GDI-015, (1R,2S,5S)-3-((S)-2-acetamido-3,3-dimethylbutyryl)-N-(cyano(5-(3-methyl-1,2,4-oxadiazol-5-yl)pyridin-3-yl)methyl)-6,6-dimethy 1-3-azabicyclo[3.1.0]hexane-2-carboxamide] | 120 nM |
| CC(=O)N[C@H](C(=O)N1C[C@H]2[C@@H]([C@H]1C(=O)NC(C#N)c1cncc3c(F)cccc13)C2(C)C)C(C)(C)C (stereo partly drawn) [GDI-033, (1R,2S,5S)-3-((S)-2-acetamido-3,3-dimethylbutyryl)-N-(cyano(8-fluoroisoquinolin-4-yl)methyl)-6,6-dimethyl-3-azabicyclo[3.1.0]h exane-2-carboxamide] | 56 nM |
| CN(C)c1ccc(S(=O)(=O)N[C@H](C(=O)N2C[C@H]3[C@@H]([C@H]2C(=O)NC(C#N)c2cncc(C(F)(F)F)c2)C3(C)C)C(C)(C)C)cc1 (stereo partly drawn) [GDI-019, (1R,2S,5S)-N-(cyano(5-(trifluoromethyl)pyridin-3-yl)methyl)-3-((S)-2-((4-(dimethylamino)phenyl)sulfonamido)-3,3-dimethylbutanoyl) -6,6-dimethyl-3-azabicyclo[3.1.0]hexane-2-carboxamide] | 22 nM |
| CC(C)(C)[C@H](NS(=O)(=O)C(F)(F)F)C(=O)N1C[C@H]2[C@@H]([C@H]1C(=O)NC(C#N)c1cncc3ccccc13)C2(C)C (stereo partly drawn) [GDI-029, (1R,2S,5S)-N-(cyano(isoquinolin-4-yl)methyl)-3-((S)-3,3-dimethyl-2-((trifluoromethyl)sulfonamido)butanoyl)-6,6-dimethyl-3-azabic yclo[3.1.0]hexane-2-carboxamide] | 23 nM |
| Cc1ccc(S(=O)(=O)N[C@H](C(=O)N2C[C@H]3[C@@H]([C@H]2C(=O)NC(C#N)c2cncc(Br)c2)C3(C)C)C(C)(C)C)cc1 (stereo partly drawn) [GDI-021, (1R,2S,5S)-N-((5-bromopyridin-3-yl) (cyano)methyl)-3-((S)-3,3-dimethyl-2-((4-methylphenyl)sulfonamido)butanoyl)-6,6-dimethyl-3-azabicyclo[3.1.0]hexane-2-carboxamide] | 19 nM |
| CC(=O)N[C@H](C(=O)N1C[C@H]2[C@@H]([C@H]1C(=O)NC(C#N)c1cnc3[nH]ccc3c1)C2(C)C)C(C)(C)C (stereo partly drawn) [GDI-020, (1R,2S,5S)-3-((S)-2-acetamido-3,3-dimethylbutyryl)-N(cyano(1H-pyrrole[2,3-b]pyridin-5-yl)methyl)-6,6-dimethyl-3-azabicyclo[3. 1.0]hexane-2-carboxamide] | 19 nM |
| CC(=O)N[C@H](C(=O)N1C[C@H]2[C@@H]([C@H]1C(=O)NC(C#N)c1cncc(-c3nc(C(C)C)no3)c1)C2(C)C)C(C)(C)C (stereo partly drawn) [GDI-031, (1R,2S,5S)-3-((S)-2-acetamido-3,3-dimethylbutyryl)-N-(cyano(5-(3-isopropyl-1,2,4-oxadiazol-5-yl)pyridin-3-yl)methyl)-6,6-dimet hyl-3-azabicyclo[3.1.0]hexane-2-carboxamide] | 100 nM |
| CC(C)(C)[C@H](NS(=O)(=O)C(F)(F)F)C(=O)N1C[C@H]2[C@@H]([C@H]1C(=O)NC(C#N)c1cncc(Br)c1)C2(C)C (stereo partly drawn) [GDI-025, (1R,2S,5S)-N-((5-bromopyridin-3-yl) (cyano)methyl)-3-((S)-3,3-dimethyl-2-((trifluoromethyl)sulfonamido)butanoyl)-6,6-dimethyl-3-azabicyclo[3.1.0]hexane-2-carboxamide] | 19 nM |
| Cc1ccc(S(=O)(=O)N[C@H](C(=O)N2C[C@H]3[C@@H]([C@H]2C(=O)NC(C#N)c2cncc4ccccc24)C3(C)C)C(C)(C)C)cc1 (stereo partly drawn) [GDI-023, (1R,2S,5S)-N-(cyano(isoquinolin-4-yl)methyl)-3-((S)-3,3-dimethyl-2-((4-methylphenyl)sulfonamido)butanoyl)-6,6-dimethyl-3-azabic yclo[3.1.0]hexane-2-carboxamide] | 15 nM |
| CC(=O)N[C@H](C(=O)N1C[C@H]2[C@@H]([C@H]1C(=O)NC(C#N)c1cncc(-c3cn[nH]c3)c1)C2(C)C)C(C)(C)C (stereo partly drawn) [GDI-032, (1R,2S,5S)-N-((5-(1H-pyrazol-4-yl)pyridin-3-yl)(cyano)methyl)-3-((S)-2-acetylamino-3,3-dimethylbutanoyl)-6,6-dimethyl-3-azabi cyclo[3.1.0]hexane-2-carboxamide] | 28 nM |
| CC(=O)N[C@H](C(=O)N1C[C@H]2[C@@H]([C@H]1C(=O)NC(C#N)c1cncc(-c3ccn[nH]3)c1)C2(C)C)C(C)(C)C (stereo partly drawn) [GDI-035, (1R,2S,5S)-N-((5-(1H-pyrazol-5-yl)pyridin-3-yl)(cyano)methyl)-3-((S)-2-acetylamino-3,3-dimethylbutanoyl)-6,6-dimethyl-3-azabi cyclo[3.1.0]hexane-2-carboxamide] | 17 nM |
| CNC(=O)c1cncc(C(C#N)NC(=O)[C@@H]2[C@@H]3[C@H](CN2C(=O)[C@@H](NC(C)=O)C(C)(C)C)C3(C)C)c1 (stereo partly drawn) [GDI-018, (1R,2S,5S)-3-((S)-2-acetamido-3,3-dimethylbutyryl)-N(cyano(5-(methylcarbamoyl)pyridin-3-yl)methyl)-6,6-dimethyl-3-azabicycl o[3.1.0]hexane-2-carboxamide] | 110 nM |
| CC(=O)N[C@H](C(=O)N1C[C@H]2[C@@H]([C@H]1C(=O)NC(C#N)c1cncc(Br)c1C)C2(C)C)C(C)(C)C (stereo partly drawn) [GDI-009, (1R,2S,5S)-3-((S)-2-acetamido-3,3-dimethylbutyryl)-N-((5-bromo-4-methylpyridin-3-yl)(cyano)methyl)-6,6-dimethyl-3-azabicycl o[3.1.0]hexane-2-carboxamide] | 53 nM |
| CC(=O)N[C@H](C(=O)N1C[C@H]2[C@@H]([C@H]1C(=O)NC(C#N)c1cncc(-n3cccn3)c1)C2(C)C)C(C)(C)C (stereo partly drawn) [GDI-028, (1R,2S,5S)-N-((5-(1H-pyrazol-1-yl)pyridin-3-yl)(cyano)methyl)-3-((S)-2-acetylamino-3,3-dimethylbutanoyl)-6,6-dimethyl-3-azabi cyclo[3.1.0]hexane-2-carboxamide] | 2.4 nM |
